Laboratory results reported in US20060153844A1, “Methods to trigger, maintain and manipulate immune responses by targeted administration of biological response modifiers into lymphoid organs” (priority 2004, published 2006).
“Also recorded” adds a separate entry of the source.

Tests used:
DCs = test: activation of lymph node DCs, up-regulation of CD80 and CD86 (flow cytometry); type: in vivo, C57BL/6 mice
Method: To assess CpG-induced activation of professional APCs, C57BL/6 mice received titrated amounts of CpG ODN 1668pt either subcutaneously by injection into the inguinal region or by direct injection into the inguinal lymph node. After one day the inguinal lymph nodes were collected and DCs were isolated by Collagenase D digestion and positive isolation using anti-CD11c magnetic beads. Activation of DCs was assessed by measuring up-regulation of CD80 and CD86 (FIGS. 3A and B). Values represent the mean fluorescence intensity (MFI) measured by flow cytometry. As control, mice were immunized i.ln. with saline solution. Lymph node cells pooled from three mice per group were used for the analysis. At least 1.5×10^4 CD11c^+ cells were acquired per condition. […] Note that an intralymphatic control injection with saline induced slight upregulation of CD80 and CD86. This may be explained by the physical lymph node damage produced by the needle. Thus, although both sites of injection are very close to each other, direct intralymphatic administration reduced the dose of CpG that is necessary for DC maturation by 10-50 fold.

[1] = tested on: EL-4 target cells pulsed with the ovalbumin peptide epitope; test: direct ex vivo CTL activity, 51Cr-release assay after OVA plus CpG; type: in vivo, C57BL/6 mice; details: seven days later
Method: The optimal intralymphatic dose of CpG for CTL induction was evaluated and compared to the optimal subcutaneous dose. C57BL/6 mice were injected with OVA alone or in combination with CpG ODN 1668pt. CD8 T cell responses were tested for direct ex vivo CTL activity seven days later using ^51Cr-release assays on EL-4 target cells pulsed with the ovalbumin peptide epitope (SEQ. ID. No. 2) at various effector to target cell ratios. Two dilution series of effector cells per mouse were performed. The means±SEM (n=3) are shown (see FIG. 4). […] The CTL activity was correlated with the frequency of CD8 lymphocytes staining positive for intracellular IFN-γ as measured by flow cytometry (data not shown).

PLA2-specific IgG = PLA2-specific IgG by ELISA after PLA2 plus titrated CpG; type: in vivo, CBA/J mice
Method: The doses of CpG required to enhance Th1-dependent IgG immune responses against an allergen, and whether intralymphatic administration could reduce the required dose of CpG were evaluated. PLA2, the major allergen from bee venom, was used as a model allergen. CBA/J mice were immunized biweekly with […] ODN-1668pt together with 0.1 μg of PLA2 either intralymphatically (A) or subcutaneously (B). Three weeks after the third injection, sera of mice were collected and PLA2-specific IgG was determined by ELISA (FIG. 9). Values represent means and standard deviations obtained from three mice per group. One representative of two similar experiments is shown.

splenocyte = details: mouse, in vivo, sc
Method: C57BL/6 mice were treated with different doses of CpG and euthanized 8 days later for analysis of the spleen. […] The means±SEM (n=3) are shown. […] The means±SEM (n=3) are shown.

splenocytes = test: IFN-γ, IL-4 and IL-10 secretion of splenocytes cultured with PLA2 (ELISA); type: in vivo, CBA/J mice; details: for IFN-γ secreted (ELISA): versus LPS or 3M003 P<0.01
Method: (§1) Two weeks later spleen cells were isolated, and analysed directly for intracellular IFN-γ by flow cytometry (FIG. 11) or analyzed for IFN-γ, IL-4 and IL-10 secretion by ELISA after four days cultivation with 10 μg/ml PLA2 (FIG. 12). For FIG. 11, intracellular IFN-γ was measured by flow cytometry after four hours stimulation of cells with PdBu and ionomycin (both at 500 ng/ml) in the presence of brefeldin A (10 μg/ml). The cells were then incubated with anti-CD16/CD32 for Fc-recptor blocking and stained on ice and in PBS/FCS 2% with fluorescent-labelled Abs against CD4, CD8 and CD44 (all Abs from BD Biosciences (Franklin Lakes, N.J.). Cells were subsequently fixed with 4% paraformaldehyde and permeabilised with 0.1% Nonidet P-40 before staining with Ab against IFN-γ. Four-color cytometry were performed on a FACSCalibur flow cytometer (BD Biosciences, San Jose, Calif.). Cells were gated on CD4 or CD8 positive lymphocytes and the results expressed as means (±S.D.) for three mice, as percent of T-cell subset (A) or as absolute numbers in the spleen (B). One representative out of two immunization experiments is shown. For FIG. 12, after homogenisation of spleens and lysis of red blood cells, 5×10^5 splenocytes were cultured with 20 μg/ml PLA2 protein in 200 μl IMDM (Gibco) supplemented with L-glutamine (4 mM), FCS (10%), mercaptoethanol (75 μM), as well as streptomycin and ampicillin. Supernatants were collected after 96 hours incubation and IL-4, IL-10 and IFN-γ concentrations determined by ELISA from R&D Systems (Abingdon, United Kingdom). Cytokine concentrations in supernatants as determined by ELISA after subtraction of spontaneous cytokine secretion was determined upon in vitro stimulation with an irrelevant antigen (ovalbumin). Statistical differences between the different groups were indicated when significant (P<0.01). One representative out of two immunization experiments is shown.

[2] = tested on: CD4 or CD8 positive lymphocytes; test: intracellular IFN-γ in spleen CD4 and CD8 T cells by flow cytometry; type: in vivo, CBA/J mice; details: two weeks after further boost of PLA2 and adjuvant; percentage and absolute number
Method: as §1, with “For FIG. 12, after homogenisation of spleens and lysis of red blood cells, 5×10^5 splenocytes were cultured with 20 μg/ml PLA2 protein in 200 μl IMDM (Gibco) supplemented with L-glutamine (4 mM), FCS (10%), mercaptoethanol (75 μM), as well as streptomycin and ampicillin.” left out, “Cytokine concentrations in supernatants as determined by ELISA after subtraction of spontaneous cytokine secretion was determined upon in vitro stimulation with an irrelevant antigen (ovalbumin). Statistical differences between the different groups were indicated when significant (P<0.01). One representative out of two immunization experiments is shown.” left out

[3] = tested on: PLA2-specific IgG2a and IgG1 antibodies; test: anti-PLA2 IgG2a, IgG1 and IgE in sera after intralymphatic PLA2 plus TLR ligand; type: in vivo, CBA/J mice; details: for kinetics of the antibody production (time of maximum titers): i.ln. with 0.1 μg PLA2, sera over 13 weeks; for anti-PLA2 antibody isotypes induced (IgG2a, IgG1): i.ln. with 0.1 μg PLA2, three injections; for sero-conversion: seven weeks after the first and three weeks after last injection, i.ln. with 0.1 μg PLA2
Method: The compounds were mixed within an hour before injection into the inguinal lymph node.
The sera were obtained over 13 weeks and analyzed by ELISA for anti-PLA2 IgG2a (FIG. 10A) and IgG1 (FIG. 10B). The ratio of IgG2a to IgG1 titers was calculated as a measure for Th1/Th2 immune response balance (FIG. 10C). […] Pre-immunization levels of anti-PLA2 antibodies were measured on sera from five mice taken the day before first injection.

[4] = of the 17 patients receiving IL-12 in the phase II study; cited from earlier work
CD8+ T cell population = test: tetramer and CD8 double staining after intranodal Melan-A peptide plus BRM; type: in vivo; details: for immune response by tetramer staining: intranodal Melan-A peptide alone, plus 0.1 nmole CpG ODN or plus 25 μg polyI:C, days 0, 3, 14 and 17
Excerpt: H-2 class I-negative, HLA-A2.1-transgenic (HHD-1) mice (Pascolo, S., et al., J Exp Med. 185:2043-2051, 1997 (which is incorporated herein in its entirety)) were housed under pathogen-free conditions and used for evaluation of the immunogenicity of HLA-A2.1-restricted human tumor-associated cytotoxic T lymphocyte (CTL) epitopes. Female mice 8-12 weeks of age were used for intralymphatic immunization and for isolation of splenocytes for in vivo cytotoxicity studies. […] A total of four rounds of injections were given, on days 0, 3, 14 and 17.
The immune response was measured by tetramer and CD8 double staining of splenocytes from the immunized mice. Mononuclear cells isolated from peripheral blood after density centrifugation (Lympholyte Mammal, Cedarlane Labs) with HLA-A*0201 MART1 (SEQ. ID. No. 3)-PE MHC tetramer (Beckman Coulter) and FITC conjugated rat anti-mouse CD8a (Ly-2) monoclonal antibody (BD Biosciences). Data was collected using a BD FACS Calibur flow cytometer and analysed using Cellquest software by gating on the lymphocyte population and calculating the percent of tetramer^+ cells within the CD8^+ CTL population. The results (see FIG. 5) were expressed as means±SEM of % tetramer stained cells within the CD8+ T cell population (A), and with specific dot plot plots representative for each group (B). Splenocytes from naive transgenic mice were included as controls.

[5] = tested on: Human melanoma tumor target cells, 624.38 (Melan-A^+, HLA-A2^+); test: in vivo clearance of human melanoma tumor cells from pulmonary tissue; parameters: species or system HHD-1 mice; details: mice immunized intranodally as in Example 4, challenged i.v. with 624.38 cells
Method: The effectiveness of CTL generated as described in Example 4 was assessed as in vivo clearance of tumor cells from pulmonary tissue in mice challenged with Melan-A^+ tumor cells. Human melanoma tumor target cells, 624.38 (Melan-A^+, HLA-A2^+) were cultured in RPMI medium supplemented with 10% fetal bovine serum (Hyclone), 0.1 mM non-essential amino acids, and 0.3 mg/mL L-glutamine in a 5% CO2 incubator at 37° C. The HLA-A2^− subclone, 624.28, was grown under the same conditions and served as a negative control. Specific targets were prepared by incubating 10^8 624.38 cells with 2.5 μM CFSE in PBS for 20 minutes (CFSE^hi) and 10^8 HLA-A2^−, 624.28 target controls were labelled with 0.25 μM CFSE (CFSE^lo). Each immunized HHD-1 mouse was intravenously injected in the tail vein with a mixture of 10^7 CFSE^hi 624.38 and 10^7 CFSE^lo 624.28 cells followed by an identical injection 3 hours later. Un-immunized HHD-1 mice were also injected and served as naïve controls. […] The mononuclear cells were then isolated by density centrifugation and CFSE positive cells were analysed by FACS. The in vivo specific lysis of human melanoma target cells in the lung was calculated by the following formula: [(1−% CFSE^hi/% CFSE^lo)−(1−% CFSE^hiControl/% CFSE^loControl)]

[6] = tested on: ^51Cr-labeled target cells (T2 cells); test: standard cytotoxic assay after intranodal peptide plus polyI:C; type: in vivo, HHD-A2 transgenic mice; details: 12.5 μg peptide+12.5 μg polyI:C per inguinal lymph node, day 0, 3, 14 and 17; targets pulsed with peptide or tumor cells
Method: HHD-A2 transgenic mice (n=4/group) were immunized with various peptides (see Table 1) admixed with polyI:C, by direct inoculation into the inguinal lymph nodes (12.5 μg peptide+12.5 μg of adjuvant, in 25 μl of PBS/each inguinal lymph node at day 0, 3, 14 and 17). One week after the final administration, splenocytes were stimulated ex vivo with 10 μg/ml of peptide in presence of 5 U/ml of rIL-2 and tested in a standard cytotoxic assay, against ^51Cr-labeled target cells (T2 cells) uncoated or coated with cognate peptide, at various Effector:Target ratios. Alternatively, in the case of PSMA 288-297 epitope, cytotoxicity was measured against PSMA expressing human tumor cells (LNCap) cells coated or not with 10 μg/ml of MHC class I blocking antibody (W6/32). Cytotoxicity resulting from immunization with the NY-ESO-1 157-165 epitope was also assessed against 624.28 and 624.38 cells that had been transformed to express a GFP/NY-ESO-1 fusion protein.

CpG ODN 1668pt: CpG ODN 1668pt (SEQ. ID. No. 1), unmethylated CpG oligodeoxynucleotide, TLR9 ligand (DNA TCCATGACGTTCCTGAATAAT; DNA, backbone not given here)
expression of CD80 and CD86 on DCs (DCs; 10 and 1 nmol, regardless of the route, after one day): significantly enhanced expression of CD80 and CD86
reduction of the dose of CpG necessary for DC maturation (DCs; direct intralymphatic versus subcutaneous administration): 10-50 fold
DC maturation (DCs; low CpG doses of 0.1 and 0.01 nmol, i.ln. versus s.c.): only direct injection into the inguinal lymph node induced significant DC maturation
CTL activity ([1]; subcutaneous vaccination with OVA plus CpG): did not elicit CTL activity
CTL activity ([1]; vaccinated intralymphatically with OVA plus CpG): significant induction of cytotoxic CD8 T cells even at 0.01 nmol CpG
PLA2-specific antibody responses (PLA2-specific IgG; intralymphatic, high CpG dose of 10 nmol): no antibody responses were detectable
PLA2-specific antibody titers (PLA2-specific IgG; intralymphatic, low CpG doses of 0.1 and 0.01 nmol): highest antibody titers
PLA2-specific IgG, adjuvant effect (PLA2-specific IgG; subcutaneously, CpG 0.1 and 0.01 nmol): an adjuvant effect was no longer detectable
PLA2-specific IgG titers (PLA2-specific IgG; subcutaneously, CpG doses of 10 and 1 nmol with 0.1 μg PLA2): highest IgG titers
changes of B lymphocytes in spleen (splenocyte): Only moderate changes
relative amounts of CD4 and CD8 T cells as well as NK cells (splenocyte): substantially reduced in a dose-dependent manner

CpG: phosphorothioate-modified CpG ODN 1826 (SEQ. ID. No. 10), TLR 9 ligand, Examples 8 and 9 (DNA TCCATGACGTTCCCTGACGTT; DNA, all phosphorothioate, methylation of C not given here)
IL-4 secretion (splenocytes; compared with 3M003 and PolyI:C (P<0.01) or LPS (P<0.05)): significantly reduced IL-4 secretion
IL-10 production (splenocytes; splenocytes cultured with PLA2): the strongest IL-10 production
IFN-γ secreted (ELISA) (splenocytes; splenocytes cultured with PLA2): highest amounts of IFN-γ
IFN-γ producing CD8-positive and CD4-positive T cells [2]: strongest effect
serum concentration of IgG1 relative to the titers induced by LPS or PolyI:C ([3]; geometrically, 10 and 13 weeks): 30-50%
kinetics of the antibody production (time of maximum titers) [3]: a delay in the IgG1 antibody production
anti-PLA2 antibody isotypes induced (IgG2a, IgG1) [3]: induced IgG2a
IgG1 in seven-week sera ([3]; seven weeks after initiating immunization): hardly detectable
sero-conversion [3]: notable sero-conversion

IL-12: co-stimulatory cytokine
patients died [4]: 2 patients
patients hospitalized [4]: 12 patients

Melan-A peptide: Melan-A peptide (SEQ. ID. No. 3), A27L analogue of the A2-restricted Melan-A 26-35 epitope
immune response by tetramer staining (CD8+ T cell population): readily detectable response by tetramer staining; also recorded: not very effective in inducing a robust T cell population expansion

peptidoglycan
kinetics of the antibody production (time of maximum titers) [3]: peak titers were delayed
anti-PLA2 antibody isotypes induced (IgG2a, IgG1) [3]: induced predominantly IgG2a

polyriboinosinic polyribocytidylic acid [polyI:C]
IFN-γ secreted (ELISA) (splenocytes; splenocytes cultured with PLA2): highest amounts of IFN-γ
in vivo lysis of human melanoma target cells in the lung [5]: substantial lytic activity
cytotoxic response [6]: triggered a specific cytotoxic response
immune response by tetramer staining (CD8+ T cell population): robust antigen specific response
systemic acute phase reaction, mortality or morbidity at the dose used (CD8+ T cell population; intranodal, 0.1 nmole CpG ODN or 25 μg polyI:C): not associated with observed mortality or morbidity
kinetics of the antibody production (time of maximum titers) [3]: maximum levels of antibodies within three weeks of the final boost injection
anti-PLA2 antibody isotypes induced (IgG2a, IgG1) [3]: high antibodies titers of both IgG1 and IgG2a isotypes
sero-conversion [3]: notable sero-conversion
